Where two headings read alike, the source gives them in different places. Where a SMILES comes first, the peptide text is derived from it. [ ]: non-standard residue; d: D form. The star is where a group is joined. Sta = CC(C)C[C@H](N)[C@@H](O)CC(=O)O; Isovaleryl = CC(C)CC(=O)*
Columns and labels:
[1] = test system: fuLAP2; assay type: biochemical, Aspergillus fumigatus; settings: for fuLAP2 hydrolytic activity, percentage of control without inhibitor / fuLAP2 hydrolytic activity, percentage of control without any cation: Leu-MCA substrate
Protocol: (§1) Inhibitors and metallic cations were pre-incubated with the enzymes for 15 min at 37° C. Then, Leu-AMC at a 5 mM final concentration was added. After further incubation for 60 min, enzyme activity was measured as described above. The inhibitors and their concentrations tested purified LAPs were: 500 μM amastatin (Bachem), 40 μM benzamidine (Sigma), 500 μM bestatin (Bachem), 5 mM/l mM EDTA (Sigma). 100 μM E-64 (L-trans-epoxysuccinyl-leu-4-guanidinobutylamide) (Bachem), 100 μM leupeptin (Sigma), 5 mM/1 mM ortho-phenanthroline (Sigma), 500 μM p-chloromercuribenzoic acid (Sigma), 100 μM pepstatin A (Sigma), 40 μM PMSF (Sigma), 20 μM TLCK (Roche Diagnostics), and 20 μM TPCK (Roche Diagnostics).

[2] = test system: all the LAPs tested (ruLAP1, ruLAP2, fuLAP1, fuLAP2, pkLAP); assay type: biochemical; settings: Leu-AMC 5 mM; amastatin 500 μM; ortho-phenantroline 1 and 5 mM; others as
Protocol: as §1

[3] = target: ruLAP2 (Trichophyton rubrum, UniProt Q5QHG6); assay type: biochemical; settings: for ruLAP2 hydrolytic activity, percentage of control without any cation / ruLAP2 hydrolytic activity, percentage of control without inhibitor: Leu-MCA substrate
Chain of ruLAP2 (Q5QHG6 22-495): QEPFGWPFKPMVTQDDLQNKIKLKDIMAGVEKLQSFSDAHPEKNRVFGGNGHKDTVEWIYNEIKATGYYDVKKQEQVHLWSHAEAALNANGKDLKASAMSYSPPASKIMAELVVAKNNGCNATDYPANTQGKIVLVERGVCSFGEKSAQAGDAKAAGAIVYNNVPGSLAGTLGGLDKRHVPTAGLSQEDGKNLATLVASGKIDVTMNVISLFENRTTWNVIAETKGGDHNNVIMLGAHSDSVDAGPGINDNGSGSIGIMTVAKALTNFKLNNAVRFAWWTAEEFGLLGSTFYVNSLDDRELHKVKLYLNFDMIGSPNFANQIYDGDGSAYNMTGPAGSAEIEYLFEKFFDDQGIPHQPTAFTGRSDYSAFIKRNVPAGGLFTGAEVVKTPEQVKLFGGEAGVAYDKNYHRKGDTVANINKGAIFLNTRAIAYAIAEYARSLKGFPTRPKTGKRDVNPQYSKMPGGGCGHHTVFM
Protocol: as §1

[4] = target: ruLAP1 (Trichophyton rubrum, UniProt Q5QHG5); assay type: biochemical; settings: for effect of inhibitor on ruLAP1 activity: Leu-AMC 5 mM, inhibitor concentrations, pepstatin 0.1 mM; for ruLAP1 hydrolytic activity, percentage of control without any cation / ruLAP1 hydrolytic activity, percentage of control without inhibitor: Leu-MCA substrate
Chain of ruLAP1 (Q5QHG5 19-373): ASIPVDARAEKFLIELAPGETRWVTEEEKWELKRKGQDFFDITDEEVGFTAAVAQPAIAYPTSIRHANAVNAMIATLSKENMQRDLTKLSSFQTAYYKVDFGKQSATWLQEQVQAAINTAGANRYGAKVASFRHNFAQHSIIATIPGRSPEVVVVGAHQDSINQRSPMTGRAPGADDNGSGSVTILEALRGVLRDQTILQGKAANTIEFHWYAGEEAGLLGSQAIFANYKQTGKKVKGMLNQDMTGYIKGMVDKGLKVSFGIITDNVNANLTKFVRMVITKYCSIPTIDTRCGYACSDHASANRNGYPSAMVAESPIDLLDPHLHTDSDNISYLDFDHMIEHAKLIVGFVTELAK
Protocol: as §1

[5] = target: T1, pkLAP (microsomal LAP from porcine kidney) (Sus scrofa, UniProt P15145); test: Effect of chemical reagents (inhibitors, metallic cations) on LAP activity with Leu-AMC; assay type: biochemical; settings: for pkLAP hydrolytic activity, percentage of control without any cation / pkLAP hydrolytic activity, percentage of control without inhibitor: Leu-MCA substrate
T1 construct: purchased Sigma; host or cells: porcine kidney
T1 sequence (P15145 1-963): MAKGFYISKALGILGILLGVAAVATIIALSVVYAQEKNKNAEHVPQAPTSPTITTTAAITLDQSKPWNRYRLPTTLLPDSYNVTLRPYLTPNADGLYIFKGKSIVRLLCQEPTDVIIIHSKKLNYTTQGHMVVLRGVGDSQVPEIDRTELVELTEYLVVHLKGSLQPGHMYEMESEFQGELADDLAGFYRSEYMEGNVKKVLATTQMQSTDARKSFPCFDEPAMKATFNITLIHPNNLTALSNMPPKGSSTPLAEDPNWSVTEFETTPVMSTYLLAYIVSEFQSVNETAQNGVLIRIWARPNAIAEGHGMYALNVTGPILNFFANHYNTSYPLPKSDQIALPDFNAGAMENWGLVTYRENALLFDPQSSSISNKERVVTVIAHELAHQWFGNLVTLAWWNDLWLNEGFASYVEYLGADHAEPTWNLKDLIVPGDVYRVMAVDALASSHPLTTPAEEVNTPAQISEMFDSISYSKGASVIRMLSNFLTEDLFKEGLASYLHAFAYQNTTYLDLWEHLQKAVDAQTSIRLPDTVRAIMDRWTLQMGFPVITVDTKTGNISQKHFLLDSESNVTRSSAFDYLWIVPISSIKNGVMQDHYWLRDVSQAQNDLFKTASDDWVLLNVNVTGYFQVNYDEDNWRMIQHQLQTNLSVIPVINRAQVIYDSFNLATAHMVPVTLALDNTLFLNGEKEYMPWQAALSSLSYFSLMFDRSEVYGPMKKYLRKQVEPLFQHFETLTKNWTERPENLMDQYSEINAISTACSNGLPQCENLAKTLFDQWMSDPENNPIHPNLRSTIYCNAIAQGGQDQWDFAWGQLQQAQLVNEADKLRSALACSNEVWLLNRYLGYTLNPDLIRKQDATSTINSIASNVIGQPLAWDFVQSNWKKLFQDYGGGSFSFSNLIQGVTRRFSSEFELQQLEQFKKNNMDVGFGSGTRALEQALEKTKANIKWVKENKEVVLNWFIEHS
Protocol: as §1

[6] = target: fuLAP1 (Aspergillus fumigatus, UniProt Q5VJG6); assay type: biochemical; settings: for fuLAP1 hydrolytic activity, percentage of control without any cation / fuLAP1 hydrolytic activity, percentage of control without inhibitor: Leu-MCA substrate
Chain of fuLAP1 (Q5VJG6 15-388, looked up, natural form): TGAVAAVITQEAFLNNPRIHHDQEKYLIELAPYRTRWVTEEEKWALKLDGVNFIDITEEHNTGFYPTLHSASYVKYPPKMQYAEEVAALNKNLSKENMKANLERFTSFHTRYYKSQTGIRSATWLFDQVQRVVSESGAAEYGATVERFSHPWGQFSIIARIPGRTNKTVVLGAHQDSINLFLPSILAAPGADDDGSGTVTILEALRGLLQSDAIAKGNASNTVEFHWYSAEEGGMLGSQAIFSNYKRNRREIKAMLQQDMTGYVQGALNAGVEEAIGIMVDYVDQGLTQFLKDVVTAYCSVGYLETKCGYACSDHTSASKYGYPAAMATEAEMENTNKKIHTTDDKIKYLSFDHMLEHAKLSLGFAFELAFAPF
Protocol: as §1

SMILES	pkLAP hydrolytic activity, percentage of control without any cation ([5]; cation salt 0.5 mM) [%]	pkLAP hydrolytic activity, percentage of control without any cation ([5]; cation salt 1 mM) [%]	fuLAP2 hydrolytic activity, percentage of control without any cation ([1]; cation salt 0.5 mM) [%]	fuLAP2 hydrolytic activity, percentage of control without any cation ([1]; cation salt 1 mM) [%]	fuLAP1 hydrolytic activity, percentage of control without any cation ([6]; cation salt 0.5 mM) [%]	fuLAP1 hydrolytic activity, percentage of control without any cation ([6]; cation salt 1 mM) [%]	ruLAP2 hydrolytic activity, percentage of control without any cation ([3]; cation salt 0.5 mM) [%]	ruLAP2 hydrolytic activity, percentage of control without any cation ([3]; cation salt 1 mM) [%]	ruLAP1 hydrolytic activity, percentage of control without any cation ([4]; cation salt 0.5 mM) [%]	ruLAP1 hydrolytic activity, percentage of control without any cation ([4]; cation salt 1 mM) [%]	further results
N=C(N)c1ccccc1 [benzamidine]	–	–	–	–	–	–	–	–	–	–	fuLAP2 hydrolytic activity, percentage of control without inhibitor ([1]; inhibitor 40 μM): 91%; effect of inhibitor on all the LAPs tested [2]: no clear inhibitory effects
O=C(O)CN(CCN(CC(=O)O)CC(=O)O)CC(=O)O [EDTA]	–	–	–	–	–	–	–	–	–	–	effect of inhibitor on ruLAP2 activity ([3]; Leu-AMC 5 mM, inhibitor concentrations): more sensitive; effect of inhibitor on ruLAP1 activity [4]: more sensitive
[Cl][Mn][Cl] [Mn^++, MnCl2]	157.6	165.8	84.3	140.2	25.9	28.4	77.5	86.8	120.7	105.2	effect of divalent cation on fuLAP2 activity ([1]; Leu-AMC substrate): activated; effect of divalent cation on fuLAP1 activity ([6]; Leu-AMC substrate): inhibited
c1cnc2c(c1)ccc1cccnc12 [orthophenanthroline]	–	–	–	–	–	–	–	–	–	–	pkLAP hydrolytic activity, percentage of control without inhibitor ([5]; inhibitor 1 mM): 0%; pkLAP hydrolytic activity, percentage of control without inhibitor ([5]; inhibitor 5 mM): 0%; fuLAP2 hydrolytic activity, percentage of control without inhibitor ([1]; inhibitor 1 mM): 0%; fuLAP2 hydrolytic activity, percentage of control without inhibitor ([1]; inhibitor 5 mM): 0%; fuLAP1 hydrolytic activity, percentage of control without inhibitor ([6]; inhibitor 1 mM): 0%; fuLAP1 hydrolytic activity, percentage of control without inhibitor ([6]; inhibitor 5 mM): 0%; ruLAP2 hydrolytic activity, percentage of control without inhibitor ([3]; inhibitor 1 mM): 0%; ruLAP2 hydrolytic activity, percentage of control without inhibitor ([3]; inhibitor 5 mM): 0%; ruLAP1 hydrolytic activity, percentage of control without inhibitor ([4]; inhibitor 1 mM): 0%; ruLAP1 hydrolytic activity, percentage of control without inhibitor ([4]; inhibitor 5 mM): 0%
[Cl-].[Cl-].[Mg+2] [MgCl2]	130.1	146.1	97.6	108.0	68.5	72.6	121.2	110.2	129.9	132.6	–
CC(C)C[C@@H](N)[C@H](O)C(=O)N[C@H](C(=O)N[C@H](C(=O)N[C@@H](CC(=O)O)C(=O)O)C(C)C)C(C)C [amastatin]	–	–	–	–	–	–	–	–	–	–	fuLAP2 hydrolytic activity, percentage of control without inhibitor ([1]; inhibitor 500 μM): 0%; effect of inhibitor on all the LAPs tested [2]: strongly or totally inhibited
CC(C)CC(=O)N[C@H](C(=O)N[C@H](C(=O)N[C@@H](CC(C)C)[C@@H](O)CC(=O)N[C@@H](C)C(=O)N[C@@H](CC(C)C)[C@@H](O)CC(=O)O)C(C)C)C(C)C [pepstatin, pepstatin A] (Isovaleryl-VV[Sta]A[Sta]-OH)	–	–	–	–	–	–	–	–	–	–	fuLAP2 hydrolytic activity, percentage of control without inhibitor ([1]; inhibitor 100 μM): 73%; effect of inhibitor on fuLAP1 activity ([6]; Leu-AMC 5 mM, inhibitor concentrations, pepstatin 0.1 mM): some sensitivity; effect of inhibitor on ruLAP1 activity [4]: some sensitivity
[Cl-].[Cl-].[Zn+2] [Zn, ZnCl2]	437.6	297.9	51.4	119.5	60.7	53.2	77.9	88.9	43.0	68.9	effect of divalent cation on pkLAP activity ([5]; Leu-AMC substrate): highly activated

From patent US7943340B2, “Fungal dipeptidyl peptidase IV (DPPIV) enzyme for reagent use” (priority 2003, dated 2011)
